Laboratory results from ChEMBL document CHEMBL2074070, “Circumvention of breast cancer resistance protein (BCRP)-mediated resistance to camptothecins in vitro using non-substrate drugs or the BCRP inhibitor GF120918” (Clin Cancer Res, 2001).

Legend:
Type in all cases: functional, cell-based
[1] = biological target: T1, Broad substrate specificity ATP-binding cassette transporter ABCG2 (Homo sapiens, UniProt Q9UNQ0); assay: TP_TRANSPORTER: increase in intracellular accumulation by GF120918 in T8 cell
T1 sequence (Q9UNQ0 whole entry): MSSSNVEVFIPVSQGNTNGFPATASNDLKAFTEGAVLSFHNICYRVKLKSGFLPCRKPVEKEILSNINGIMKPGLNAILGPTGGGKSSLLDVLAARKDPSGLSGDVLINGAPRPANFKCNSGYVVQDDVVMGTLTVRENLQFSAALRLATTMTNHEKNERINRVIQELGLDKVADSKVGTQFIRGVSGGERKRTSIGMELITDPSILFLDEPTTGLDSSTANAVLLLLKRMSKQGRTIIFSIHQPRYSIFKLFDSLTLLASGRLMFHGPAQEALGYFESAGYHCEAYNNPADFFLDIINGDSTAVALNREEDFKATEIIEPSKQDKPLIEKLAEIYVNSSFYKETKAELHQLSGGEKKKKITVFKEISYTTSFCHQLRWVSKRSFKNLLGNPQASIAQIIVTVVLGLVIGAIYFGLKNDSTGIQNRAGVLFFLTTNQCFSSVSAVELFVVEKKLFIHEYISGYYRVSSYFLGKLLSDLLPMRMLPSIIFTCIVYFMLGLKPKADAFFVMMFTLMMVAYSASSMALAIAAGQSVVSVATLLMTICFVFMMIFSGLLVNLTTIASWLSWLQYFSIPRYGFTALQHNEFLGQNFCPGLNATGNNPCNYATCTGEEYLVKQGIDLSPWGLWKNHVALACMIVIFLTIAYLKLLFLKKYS

[2] = biological target: T1, Broad substrate specificity ATP-binding cassette transporter ABCG2; assay: TP_TRANSPORTER: increase in Topotecan intracellular accumulation (Topotecan: 1.9 uM, GF120918: 2 uM) in MX3 cells
[3] = biological target: T1, Broad substrate specificity ATP-binding cassette transporter ABCG2; assay: TP_TRANSPORTER: increase in Topotecan intracellular accumulation (Topotecan: 1.9 uM, GF120918: 2 uM) in T8 cells
[4] = biological target: T1, Broad substrate specificity ATP-binding cassette transporter ABCG2; assay: TP_TRANSPORTER: increase of cytotoxicity by GF120918 in MX3 cells
[5] = biological target: T1, Broad substrate specificity ATP-binding cassette transporter ABCG2; assay: TP_TRANSPORTER: increase of cytotoxicity by GF120918 in T8 cells

## CC[C@@]1(O)C(=O)OCc2c1cc1n(c2=O)Cc2cc3c(CN(C)C)c(O)ccc3nc2-1 [TOPOTECAN]
[1]
  Activity: substrate [+]

## COc1cc2c(cc1OC)CN(CCc1ccc(NC(=O)c3cccc4c(=O)c5cccc(OC)c5[nH]c34)cc1)CC2.Cl [ELACRIDAR HYDROCHLORIDE]
[2]
  Activity: inhibitor [+]
[3]
  Activity: inhibitor [+]

## CC[C@@]1(O)C(=O)OCc2c1cc1n(c2=O)Cc2c-1nc1cc(F)c(C)c3c1c2[C@@H](N)CC3 [EXATECAN]
[4]
  Activity: substrate []
[5]
  Activity: substrate []
